Experimental data from patent publication US20250311727A1, “SUBSTITUTED 2-AMINOAZINES AND SALTS THEREOF, AND USE THEREOF AS HERBICIDAL ACTIVE SUBSTANCES” (BAYER AKTIENGESELLSCHAFT, priority 2022, published 2025).

Tests used:
Type in all cases: in vivo
Abutilon theophrasti [1] = test: Post-emergence herbicidal efficacy at 320 g/ha, ABUTH; conditions: rated visually after about 3 weeks vs untreated controls, 100% = plants have died
How it was run: (§1)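 Effects are visual ratings taken about three weeks after foliar application, scaled from 0% (as untreated control) to 100% (plants died). Application was at the one-leaf stage in greenhouse-grown pots.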

Alopecurus myosuroides [2] = test: Post-emergence herbicidal efficacy at 320 g/ha, ALOMY; conditions: rated visually after about 3 weeks vs untreated controls, 100% = plants have died
How it was run: as §1

Amaranthus retroflexus [3] = test: Post-emergence herbicidal efficacy at 320 g/ha, AMARE; conditions: rated visually after about 3 weeks vs untreated controls, 100% = plants have died
How it was run: as §1

Digitaria sanguinalis [4] = test: Post-emergence herbicidal efficacy at 320 g/ha, DIGSA; conditions: rated visually after about 3 weeks vs untreated controls, 100% = plants have died
How it was run: as §1

Kochia scoparia [5] = test: Post-emergence herbicidal efficacy at 320 g/ha, KCHSC; conditions: rated visually after about 3 weeks vs untreated controls, 100% = plants have died
How it was run: as §1

Poa annua [6] = test: Post-emergence herbicidal efficacy at 320 g/ha, POAAN; conditions: rated visually after about 3 weeks vs untreated controls, 100% = plants have died
How it was run: as §1

Stellaria media [7] = test: Post-emergence herbicidal efficacy at 320 g/ha, STEME; conditions: rated visually after about 3 weeks vs untreated controls, 100% = plants have died
How it was run: as §1

Veronica persica [8] = test: Post-emergence herbicidal efficacy at 320 g/ha, VERPE; conditions: rated visually after about 3 weeks vs untreated controls, 100% = plants have died
How it was run: as §1

Abutilon theophrasti [9] = test: Post-emergence herbicidal efficacy at 80 g/ha, ABUTH; conditions: rated visually after about 3 weeks vs untreated controls, 100% = plants have died
Excerpt: (§2) Unwanted plants/weeds: • ABUTH: Abutilon theophrasti • ALOMY: Alopecurus myosuroides • AMARE: Amaranthus retroflexus • DIGSA: Digitaria sanguinalis • ECHCG: Echinochloa crus-galli • KCHSC: Kochia scoparia • LOLRI: Lolium rigidum • MATIN: Matricaria inodora • POAAN: Poa annua • POLCO: Polygonum convolvulus • SETVI: Setaria viridis • STEME: Stellaria media • VERPE: Veronica persica • VIOTR: Viola tricolor A. Post-Emergence Herbicidal Efficacy at 320 g/ha
(§3) Seeds of monocotyledonous and dicotyledonous weeds and crop plants were placed in sandy loam in plastic or organic planting pots, covered with soil and cultivated in a greenhouse under controlled growth conditions. 2 to 3 weeks after sowing, the test plants were treated at the one-leaf stage. The compounds of the invention, formulated in the form of wettable powders (WP) or as emulsion concentrates (EC), were then sprayed onto the green parts of the plants as aqueous suspension or emulsion with addition of 0.5% additive at a water application rate of 600 l/ha (converted). After the test plants had been kept in the greenhouse under optimum growth conditions for about 3 weeks, the activity of the preparations was rated visually in comparison to untreated controls. For example, 100% activity=the plants have died, 0% activity=like control plants.
(§4) Tables B1 to B11 below show the effects of selected compounds of the general formula (I) according to Table 1 on various harmful plants and an application rate corresponding to 80 g/ha, which were obtained by the experimental procedure mentioned above.

Alopecurus myosuroides [10] = test: Post-emergence herbicidal efficacy at 80 g/ha, ALOMY; conditions: rated visually after about 3 weeks vs untreated controls, 100% = plants have died
Excerpt: as §2, §3, §4

Amaranthus retroflexus [11] = test: Post-emergence herbicidal efficacy at 80 g/ha, AMARE; conditions: rated visually after about 3 weeks vs untreated controls, 100% = plants have died
How it was run: (§5)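 Visual rating against untreated plants, about 3 weeks after treatment, on a 0–100% scale where 100% means dead plants. Compounds were formulated as WP or EC with 0.5% additive and applied at 600 l/ha water onto one-leaf-stage greenhouse weeds, sown 2–3 weeks earlier in sandy loam.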

PHBPU = test: Post-emergence herbicidal efficacy at 80 g/ha, PHBPU; conditions: rated visually after about 3 weeks vs untreated controls, 100% = plants have died
Protocol: as §3, with “plants. Tables B1 to B11 below show the effects of selected compounds of the general formula (I) according to Table 1 on various harmful plants and an application rate corresponding to 80 g/ha, which were obtained by the experimental procedure mentioned above.” for “plants.”

Polygonum convolvulus [12] = test: Post-emergence herbicidal efficacy at 80 g/ha, POLCO; conditions: rated visually after about 3 weeks vs untreated controls, 100% = plants have died
Excerpt: as §2
as §3, with “plants. […]” for “plants.”

Veronica persica [13] = test: Post-emergence herbicidal efficacy at 80 g/ha, VERPE; conditions: rated visually after about 3 weeks vs untreated controls, 100% = plants have died
How it was run: as §5

Abutilon theophrasti [14] = test: Pre-emergence herbicide efficacy at 320 g/ha, ABUTH; conditions: scored visually after about 3 weeks vs untreated controls, 100% = plants have died
How it was run: (§6)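 Visual scores, given as percent of untreated controls (0% = no effect, 100% = dead plants), were taken about 3 weeks after treatment under greenhouse conditions. Treatment was a pre-emergence soil-surface application of WP or EC formulation at 320 g/ha, made up in 600 L/ha water plus 0.5% additive, over seeds covered in sandy loam.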

Amaranthus retroflexus [15] = test: Pre-emergence herbicide efficacy at 320 g/ha, AMARE; conditions: scored visually after about 3 weeks vs untreated controls, 100% = plants have died
How it was run: as §6

Digitaria sanguinalis [16] = test: Pre-emergence herbicide efficacy at 320 g/ha, DIGSA; conditions: scored visually after about 3 weeks vs untreated controls, 100% = plants have died
How it was run: as §6

Kochia scoparia [17] = test: Pre-emergence herbicide efficacy at 320 g/ha, KCHSC; conditions: scored visually after about 3 weeks vs untreated controls, 100% = plants have died
How it was run: as §6

Poa annua [18] = test: Pre-emergence herbicide efficacy at 320 g/ha, POAAN; conditions: scored visually after about 3 weeks vs untreated controls, 100% = plants have died
How it was run: as §6

Setaria viridis [19] = test: Pre-emergence herbicide efficacy at 320 g/ha, SETVI; conditions: scored visually after about 3 weeks vs untreated controls, 100% = plants have died
How it was run: as §6

Stellaria media [20] = test: Pre-emergence herbicide efficacy at 320 g/ha, STEME; conditions: scored visually after about 3 weeks vs untreated controls, 100% = plants have died
How it was run: as §6

Veronica persica [21] = test: Pre-emergence herbicide efficacy at 320 g/ha, VERPE; conditions: scored visually after about 3 weeks vs untreated controls, 100% = plants have died
How it was run: as §6

Amaranthus retroflexus [22] = test: Pre-emergence herbicide efficacy at 80 g/ha, AMARE; conditions: scored visually after about 3 weeks vs untreated controls, 100% = plants have died
How it was run: (§7)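 Visual % activity scored after roughly 3 weeks in the greenhouse against untreated pots, 100% meaning dead plants and 0% like controls. Treatment was soil-surface application right after sowing, at 80 g/ha. Formulated as WP or EC in water at 600 l/ha with 0.5% additive.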

Polygonum convolvulus [23] = test: Pre-emergence herbicide efficacy at 80 g/ha, POLCO; conditions: scored visually after about 3 weeks vs untreated controls, 100% = plants have died
How it was run: as §7

Setaria viridis [24] = test: Pre-emergence herbicide efficacy at 80 g/ha, SETVI
How it was run: as §7

Veronica persica [25] = test: Pre-emergence herbicide efficacy at 80 g/ha, VERPE
How it was run: as §7

Viola tricolor = test: Pre-emergence herbicide efficacy at 80 g/ha, VIOTR
How it was run: as §7

`FC(F)c1cc(-c2ccccc2Nc2ncc(Cl)cn2)on1` [Example 1-31] was tested, and the “Post-emergence efficacy at 320 g/ha against ABUTH in %” value (Abutilon theophrasti [1]) was 100%, the “Post-emergence efficacy at 320 g/ha against ALOMY in %” value (Alopecurus myosuroides [2]) was 100% and the “Post-emergence efficacy at 320 g/ha against AMARE in %” value (Amaranthus retroflexus [3]) was 100%. The “Post-emergence efficacy at 320 g/ha against DIGSA in %” value (Digitaria sanguinalis [4]) was 100%, the “Post-emergence efficacy at 320 g/ha against KCHSC in %” value (Kochia scoparia [5]) was 100% and the “Post-emergence efficacy at 320 g/ha against POAAN in %” value (Poa annua [6]) was 100%. For the same molecule, the “Post-emergence efficacy at 320 g/ha against STEME in %” value (Stellaria media [7]) was 100%, the “Post-emergence efficacy at 320 g/ha against VERPE in %” value (Veronica persica [8]) was 100% and the “Post-emergence efficacy at 80 g/ha against ABUTH in %” value (Abutilon theophrasti [9]) was 80%. The “Post-emergence efficacy at 80 g/ha against ALOMY in %” value (Alopecurus myosuroides [10]) was 80%, the “Post-emergence efficacy at 80 g/ha against AMARE in %” value (Amaranthus retroflexus [11]) was 90% and the “Post-emergence efficacy at 80 g/ha against PHBPU in %” value (PHBPU) was 80%. For the same molecule, the “Post-emergence efficacy at 80 g/ha against POLCO in %” value (Polygonum convolvulus [12]) was 100%, the “Post-emergence efficacy at 80 g/ha against VERPE in %” value (Veronica persica [13]) was 90% and the “Pre-emergence efficacy at 320 g/ha against ABUTH in %” value (Abutilon theophrasti [14]) was 90%. For the same molecule, the “Pre-emergence efficacy at 320 g/ha against AMARE in %” value (Amaranthus retroflexus [15]) was 100%, the “Pre-emergence efficacy at 320 g/ha against DIGSA in %” value (Digitaria sanguinalis [16]) was 100% and the “Pre-emergence efficacy at 320 g/ha against KCHSC in %” value (Kochia scoparia [17]) was 90%. For the same molecule, the “Pre-emergence efficacy at 320 g/ha against POAAN in %” value (Poa annua [18]) was 100%, the “Pre-emergence efficacy at 320 g/ha against SETVI in %” value (Setaria viridis [19]) was 100% and the “Pre-emergence efficacy at 320 g/ha against STEME in %” value (Stellaria media [20]) was 100%. For the same molecule, the “Pre-emergence efficacy at 320 g/ha against VERPE in %” value (Veronica persica [21]) was 100%, the “Pre-emergence efficacy at 80 g/ha against AMARE in %” value (Amaranthus retroflexus [22]) was 100% and the “Pre-emergence efficacy at 80 g/ha against POLCO in %” value (Polygonum convolvulus [23]) was 80%. For the same molecule, the “Pre-emergence efficacy against SETVI” value (Setaria viridis [24]) was 100%, the “Pre-emergence efficacy against VERPE” value (Veronica persica [25]) was 90% and the “Pre-emergence efficacy against VIOTR” value (Viola tricolor) was 90%.
